Where two headings read alike, the source gives them in different places.
Legend:
PTP1B = biological target: T1, PTP1B (Homo sapiens, UniProt P18031); assay: Inhibition of human recombinant tyrosine phosphatase PTP1B (DiFMUP fluorescence); assay type: biochemical; settings: for Inhibition of PTP1B, percentage of inhibition of the control: 1 µM, control solvent only, SD did not exceed 6%; for Log IC50 ± SD PTP1B: logarithm of IC50
T1 construct: purchased Sigma-Aldrich
T1 sequence (P18031 1-435): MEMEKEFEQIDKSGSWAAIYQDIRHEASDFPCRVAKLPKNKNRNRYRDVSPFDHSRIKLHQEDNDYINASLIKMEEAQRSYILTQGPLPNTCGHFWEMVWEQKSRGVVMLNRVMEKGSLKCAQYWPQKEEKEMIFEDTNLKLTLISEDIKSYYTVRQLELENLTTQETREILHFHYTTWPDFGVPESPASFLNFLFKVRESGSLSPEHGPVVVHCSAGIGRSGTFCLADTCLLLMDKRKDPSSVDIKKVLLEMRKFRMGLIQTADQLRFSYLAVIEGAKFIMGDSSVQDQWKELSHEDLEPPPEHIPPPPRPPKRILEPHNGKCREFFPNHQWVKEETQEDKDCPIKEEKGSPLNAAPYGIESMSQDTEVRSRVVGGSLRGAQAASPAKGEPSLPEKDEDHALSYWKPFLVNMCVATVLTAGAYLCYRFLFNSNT
Procedure: (§1) To determine the ability of the tested compounds for inhibition tyrosine phosphatases, human recombinant proteins were used (Sigma-Aldrich). The reactions were performed in black opaque 384-well microplates (PerkinElmer, Waltham, MA, USA). An equal volume of phosphatase solution in a reaction buffer (25 mM of 3-(N-morpholino)propanesulfonic acid (MOPS), 50 mM NaCl, 1 mM dithiothreitol (DTT), and 0.05% Tween-20 (pH 7.0)) was added to the solution of the tested compound on microplate. These solutions were dispensed using an automated injector. The following final concentrations of the tested phosphatases were used: PTP1B 50 ng/mL, SHP1 400 ng/mL, SHP2 50 ng/mL, LAR 5 ng/mL, and PTPRA 100 ng/mL. After 10 min, a solution of phosphate 6,8-difluoro-4-methyl (DiFMUP; Thermo Fisher Scientific) was added until its final concentration was 0.1 mM. Samples were incubated for 20 miN at 23 °C, and then the measurements of fluorescence intensity (excitation 355 and emission […]) were performed on a multifunctional plate reader POLARstar Omega (BMG Labtech, Ortenberg, Germany). Assays were performed in triplicate. For the screening assays, the final concentration of the tested compounds was 1 µM. The results were expressed as percent inhibition of untreated control (enzyme with vehicle only) for the screening tests. […] IC50 were calculated using GraphPad Prism version 6.0 software (GraphPad Software, Boston, MA, USA).

LAR = biological target: T2, LAR (Homo sapiens, UniProt P10586); assay: Inhibition of human recombinant tyrosine phosphatase LAR (DiFMUP fluorescence); assay type: biochemical
T2 sequence (P10586 1352-1607 limits assumed): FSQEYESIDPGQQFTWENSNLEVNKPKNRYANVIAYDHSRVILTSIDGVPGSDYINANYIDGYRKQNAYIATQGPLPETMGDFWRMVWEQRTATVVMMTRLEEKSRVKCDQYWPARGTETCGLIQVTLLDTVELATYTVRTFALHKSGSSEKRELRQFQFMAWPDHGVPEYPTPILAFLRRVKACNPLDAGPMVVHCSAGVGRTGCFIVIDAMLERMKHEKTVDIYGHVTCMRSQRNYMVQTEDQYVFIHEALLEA
Procedure: as §1

SHP1 = biological target: T3, SHP1 (Homo sapiens, UniProt P29350); assay: Inhibition of human recombinant tyrosine phosphatase SHP1 (DiFMUP fluorescence); assay type: biochemical; settings: for Log IC50 ± SD SHP1: logarithm of IC50
T3 construct: purchased Sigma-Aldrich
Procedure: as §1

SHP2 = biological target: T4, SHP2 (Homo sapiens, UniProt Q06124); assay: Inhibition of human recombinant tyrosine phosphatase SHP2 (DiFMUP fluorescence); assay type: biochemical
T4 construct: purchased Sigma-Aldrich
T4 sequence (Q06124 1-593): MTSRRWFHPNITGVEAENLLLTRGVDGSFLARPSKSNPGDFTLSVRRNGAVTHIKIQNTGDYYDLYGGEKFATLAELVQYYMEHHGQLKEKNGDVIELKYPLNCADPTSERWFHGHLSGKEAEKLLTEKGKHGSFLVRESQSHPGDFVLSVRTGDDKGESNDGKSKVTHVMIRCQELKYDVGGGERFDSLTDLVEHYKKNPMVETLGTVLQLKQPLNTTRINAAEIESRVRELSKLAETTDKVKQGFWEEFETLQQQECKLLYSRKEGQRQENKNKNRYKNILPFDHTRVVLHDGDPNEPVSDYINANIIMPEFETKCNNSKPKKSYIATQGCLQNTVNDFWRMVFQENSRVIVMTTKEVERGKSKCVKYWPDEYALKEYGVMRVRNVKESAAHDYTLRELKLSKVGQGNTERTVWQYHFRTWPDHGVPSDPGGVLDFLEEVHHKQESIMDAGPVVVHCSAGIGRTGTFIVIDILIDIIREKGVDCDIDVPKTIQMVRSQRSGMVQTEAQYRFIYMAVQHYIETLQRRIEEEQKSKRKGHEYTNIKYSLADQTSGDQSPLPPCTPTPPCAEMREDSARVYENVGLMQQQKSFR
Procedure: as §1

CDC25A = biological target: T5, CDC25A (Homo sapiens, UniProt P30304); assay: Inhibition of human recombinant non-tyrosine phosphatase CDC25A (3-O-methylfluorescein phosphate); assay type: biochemical
T5 construct: purchased Sigma-Aldrich
T5 sequence (P30304 1-524): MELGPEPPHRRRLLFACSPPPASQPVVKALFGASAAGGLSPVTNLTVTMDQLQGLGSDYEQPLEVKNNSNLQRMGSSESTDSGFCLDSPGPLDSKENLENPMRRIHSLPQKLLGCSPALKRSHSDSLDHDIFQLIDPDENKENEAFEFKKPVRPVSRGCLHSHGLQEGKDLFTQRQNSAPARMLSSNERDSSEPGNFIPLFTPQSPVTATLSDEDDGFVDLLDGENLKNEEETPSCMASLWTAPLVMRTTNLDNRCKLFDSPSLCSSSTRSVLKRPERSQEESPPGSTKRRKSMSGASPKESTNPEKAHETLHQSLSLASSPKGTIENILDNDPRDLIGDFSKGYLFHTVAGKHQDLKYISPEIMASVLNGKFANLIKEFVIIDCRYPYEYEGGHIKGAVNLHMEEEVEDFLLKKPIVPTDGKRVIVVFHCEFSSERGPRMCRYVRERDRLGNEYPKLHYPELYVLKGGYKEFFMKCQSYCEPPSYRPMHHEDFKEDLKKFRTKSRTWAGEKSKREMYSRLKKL
Procedure: (§2) For the inhibition assay of non-tyrosine phosphatases, human recombinant proteins were used (Sigma-Aldrich). The reactions were performed in black opaque 384-well microplates (PerkinElmer). To the solution of the tested complexes, an equal volume of a test solution of phosphatase was added. CDC25A were diluted in reaction buffer to the final concentration of 400 ng/mL as for tyrosine phosphatases (described in the section above), and PPA2 (final 0.5 U/mL) was diluted in 50 mM Tris-HCl, 0.05% Tween-20, and 125 µg/mL protease-free bovine serum albumin (pH 7.0). These solutions were dispensed using an automated injector. After 10 min, a solution of phosphate 6,8-difluoro-4-methyl (DiFMUP; Thermo Fisher Scientific) was added for the PPA2 sample until the final concentration 0.1 mM. For CDC25A samples, 3-O-methylfluorescein phosphate for the final concentration of 0.2 mM was added. Samples were incubated for 180 min at 23 °C, and then the measurements of fluorescence intensity (excitation 355 and emission 560 nm) were performed on a multifunctional plate reader POLARstar Omega (BMG Labtech). Assays were performed in triplicate. The results were expressed as percent of inhibition of untreated control (enzyme with vehicle solvent only).

PP2A = PP2A (Homo sapiens, UniProt P67775); assay: Inhibition of human recombinant non-tyrosine phosphatase PP2A (DiFMUP); assay type: biochemical
Procedure: as §2

myocytes C2C12 = assay: Viability of myocytes C2C12 after 24 h incubation (resazurin-based reagent); settings: 50 µM
Procedure: Simultaneously with glucose consumption tests, the viability of myocytes C2C12 was examined due to their prolonged 24 h incubation with vanadium complexes.
Prolonged incubation of the cells with vanadium complexes, as was the case during the study of the effect on glucose consumption, more closely corresponds to the actual conditions of clinical use, also allowing for the identification of possible cytotoxic effects. […] A Resazurin-based reagent is reduced proportionally to the metabolic activity of cells as a result of the transference of electrons from NADPH+H^+, the amount of which strictly depends on glucose metabolism.

[1] = 1 µM, control solvent only, SD did not exceed 6%

T3 sequence (P29350 whole entry): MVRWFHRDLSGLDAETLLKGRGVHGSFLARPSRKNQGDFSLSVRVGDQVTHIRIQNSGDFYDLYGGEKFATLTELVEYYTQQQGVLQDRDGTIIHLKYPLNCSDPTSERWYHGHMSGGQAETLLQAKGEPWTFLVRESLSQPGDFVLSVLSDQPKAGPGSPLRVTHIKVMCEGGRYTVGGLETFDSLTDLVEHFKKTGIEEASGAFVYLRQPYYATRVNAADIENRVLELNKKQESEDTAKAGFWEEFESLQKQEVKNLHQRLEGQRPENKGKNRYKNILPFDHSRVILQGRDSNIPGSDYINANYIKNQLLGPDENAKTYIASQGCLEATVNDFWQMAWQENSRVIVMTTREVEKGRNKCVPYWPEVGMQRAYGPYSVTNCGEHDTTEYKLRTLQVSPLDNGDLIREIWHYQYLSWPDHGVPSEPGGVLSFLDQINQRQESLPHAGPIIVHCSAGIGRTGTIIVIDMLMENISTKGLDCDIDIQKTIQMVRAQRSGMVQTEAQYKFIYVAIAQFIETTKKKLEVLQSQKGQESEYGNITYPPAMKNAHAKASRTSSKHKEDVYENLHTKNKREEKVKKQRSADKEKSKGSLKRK
PP2A, sequence (P67775 whole entry): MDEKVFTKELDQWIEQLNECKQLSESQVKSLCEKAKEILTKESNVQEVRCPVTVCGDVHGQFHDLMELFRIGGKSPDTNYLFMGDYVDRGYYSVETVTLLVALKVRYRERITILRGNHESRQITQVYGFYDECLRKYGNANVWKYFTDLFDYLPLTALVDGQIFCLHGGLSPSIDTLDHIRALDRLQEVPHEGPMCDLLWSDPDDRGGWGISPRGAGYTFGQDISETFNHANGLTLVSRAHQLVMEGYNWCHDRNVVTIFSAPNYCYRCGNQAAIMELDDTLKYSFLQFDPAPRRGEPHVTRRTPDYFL

Molecule | Inhibition of PTP1B, percentage of inhibition of the control (PTP1B) [%] | Inhibition of LAR, percentage of inhibition of the control (LAR; [1]) [%] | Inhibition of SHP1, percentage of inhibition of the control (SHP1; [1]) [%] | Inhibition of SHP2, percentage of inhibition of the control (SHP2; [1]) [%] | Log IC50 ± SD PTP1B (PTP1B) | IC50 (PTP1B; read-out: IC50 PTP1B) [nM] | IC50 (LAR) [nM] | Log IC50 ± SD SHP1 (SHP1) | Inhibition of CDC25A, percentage inhibition of control ± SD (CDC25A; 1 µM) [%] | Inhibition of CDC25A, percentage inhibition of control ± SD (CDC25A; 10 µM) [%] | Inhibition of PP2A, percentage inhibition of control ± SD (PP2A; 1 µM) [%] | Inhibition of PP2A, percentage inhibition of control ± SD (PP2A; 10 µM) [%] | further results
ammonium heptamolybdate [(NH4)6Mo7O24, reference compound] | 33 | 28 | 40 | 47 | −7.24 ± 0.06 | 58 | 38 | −7.59 ± 0.13 | 34 ± 1 | 51 ± 1 | 18 ± 2 | 53 ± 3 | Log IC50 ± SD LAR (LAR; logarithm of IC50): −7.42 ± 0.04; IC50 (SHP1): 26 nM; IC50 (SHP2): 26 nM; Log IC50 ± SD SHP2 (SHP2; logarithm of IC50): −7.58 ± 0.04
C1CCOC1.CSCCC1C(=O)[O][V](=[O])([Cl])([Cl])[N]1C(C)=CC(=S)Nc1ccccc1.Cl (stereo not shown) [VC073, [VOCl2(L4)]·1.5THF·3HCl] | 74 | 63 | 82 | 86 |  |  |  |  |  |  |  |  | 
Cc1ccc(C(=O)Nc2ccc(S(=O)(=O)O)c3cc(S(=O)(=O)O)cc(S(=O)(=O)O)c23)cc1NC(=O)c1cccc(NC(=O)Nc2cccc(C(=O)Nc3cc(C(=O)Nc4ccc(S(=O)(=O)O)c5cc(S(=O)(=O)O)cc(S(=O)(=O)O)c45)ccc3C)c2)c1 [Suramin, reference compound] |  |  |  |  |  |  |  |  |  |  |  |  | inhibition at 1 µM (PTP1B; read-out: Inhibition of PTP1B, percentage of inhibition of the control): 7%; inhibition at 1 µM (LAR; 1 µM, control solvent only, SD did not exceed 6%, read-out: Inhibition of LAR, percentage of inhibition of the control): 9%; inhibition at 1 µM (SHP1; 1 µM, control solvent only, SD did not exceed 6%, read-out: Inhibition of SHP1, percentage of inhibition of the control): 17%; inhibition at 1 µM (SHP2; 1 µM, control solvent only, SD did not exceed 6%, read-out: Inhibition of SHP2, percentage of inhibition of the control): 10%

Now from value to molecule, other results behind:

Inhibition of PTP1B, percentage of inhibition of the control (PTP1B) [%] | Inhibition of LAR, percentage of inhibition of the control (LAR; [1]) [%] | Inhibition of SHP1, percentage of inhibition of the control (SHP1; [1]) [%] | Inhibition of SHP2, percentage of inhibition of the control (SHP2; [1]) [%] | Log IC50 ± SD PTP1B (PTP1B) | IC50 (PTP1B; read-out: IC50 PTP1B) [nM] | IC50 (LAR) [nM] | Log IC50 ± SD SHP1 (SHP1) | Inhibition of CDC25A, percentage inhibition of control ± SD (CDC25A; 1 µM) [%] | Inhibition of CDC25A, percentage inhibition of control ± SD (CDC25A; 10 µM) [%] | Inhibition of PP2A, percentage inhibition of control ± SD (PP2A; 1 µM) [%] | Inhibition of PP2A, percentage inhibition of control ± SD (PP2A; 10 µM) [%] | Molecule | further results
36 | 35 | 62 | 64 |  |  |  |  |  |  |  |  | CC(C)(C)c1ccc(C2=NN=Cc3cc(Br)ccc3[O][V](=[O])[O]2)cc1.O.c1cnc2c(c1)ccc1cccnc12 [VC048, [VO(L10)(phen)]⋅0.5H2O] | 
25 | 19 | 53 | 57 | −5.37 ± 0.03 | 4260 | 1710 | −6.18 ± 0.03 | 12 ± 8 | 38 ± 1 | 24 ± 3 | 51 ± 4 | [O]=[V]1[O]C(c2ccc(Cl)cc2)=NN=Cc2cc(Br)ccc2[O]1.c1cnc2c(c1)ccc1cccnc12 [VC050, [VO(L11)(phen)]] | IC50 (SHP1): 657 nM; IC50 (SHP2): 273 nM
78 | 67 | 84 | 87 | −6.85 ± 0.01 | 141 | 112 | −7.56 ± 0.02 | 51 ± 2 | 65 ± 3 | 41 ± 15 | 75 ± 7 | CC(CC(=S)Nc1ccccc1)=NC(Cc1c[nH]c2ccccc12)C(=O)[O][V](=[O])([Cl])[Cl] (stereo not shown) [VC054, [VOCl2(L1)]·1.5Et2O ·6.5HCl] | IC50 (PTP1B; read-out: IC50 for PTP1B): 140 nM; Cell viability of myocytes C2C12, % of the control (myocytes C2C12): 84 ± 8%
34 | 37 | 62 | 66 |  |  |  |  |  |  |  |  | O.[O]=[V]1[O]C(c2ccc(O)cc2)=NN=Cc2cc(Br)ccc2[O]1.c1cnc2c(c1)ccc1cccnc12 [VC046, [VO(L9)(phen)]⋅2H2O] | 
70 | 56 | 80 | 83 |  |  |  |  |  |  |  |  | CCC(C)C(N=C(C)CC(=S)Nc1ccccc1)C(=O)[O][V](=[O])([Cl])[Cl] (racemic) [VC109, [VOCl2(L5)]·3HCl] | 

— PMC10892041, “Vanadium Complexes with Thioanilide Derivatives of Amino Acids: Inhibition of Human Phosphatases and Specificity in Various Cell Models of Metabolic Disturbances” (Pharmaceuticals, 2024)
